# According to patent publication US5874402A, “Use of cell membrane permeants in the treatment of cellular proliferative diseases” (Matrix Pharmaceutical, Inc., priority 1997, dated 1999):
# Columns and labels:
# RIF-1 tumors = assay: RIF-1 murine tumor growth delay after intratumoral injection (days to 4× tumor volume; T/C); format: in vivo, murine (C3H mice); parameters: key to Treated (Table 7 column): days for tumors to reach 4x baseline volume
# Method: (§1) When the introduced tumors reached 100 mm^3, the mice were ready for testing. During the course of the experiments, the treated and control tumors were measured three times per week by Vernier calipers and the tumor volumes were calculated using the following formula: […]
# where D1 -D3 are tumor diameters in millimeters. The number of days for tumors to reach four times (4×) their baseline volume was used as a parameter of treatment effectiveness. Therefore, a longer delay in tumor growth meant greater antitumor efficacy.
# C3H mice = assay: Lethal toxicity (deaths) after intratumoral injection in RIF-1 tumor-bearing C3H mice; format: in vivo
# Method: as §1, with “For each of the following experiments, transplantable murine fibrosarcoma RIF-1 tumors were grown intradermally in the flank of 3-7 month old female C3H mice (2×10^5 cells were injected). When” for “When”
# ovarian cancer cells = details: in vitro; cells first exposed to digitonin; cited from earlier work
# [1] = Table 6, agent 40 mg/kg (BFA: DMSO as solvent), saponin 10 mg/kg 1 hr prior where combined
# [2] = Table 7, dose printed 10, 4 mg/kg (saponin, vinblastine)
compound,measurement,setting,value
"C[C@H]1CCC/C=C/[C@@H]2C[C@H](O)C[C@H]2[C@H](O)/C=C/C(=O)O1 [Brefeldin A(BFA), Brefeldin A]",T/C (ratio of tumor growth delay of treated tumors to untreated controls),RIF-1 tumors; [1],2.6
C=C1O[C@@](CO)(n2cnc3c(N)ncnc32)[C@H](O)[C@@H]1O [Decoyinine],T/C (ratio of tumor growth delay of treated tumors to untreated controls),RIF-1 tumors; [1],1.0
C[C@H]1O[C@@H](O[C@H]2[C@@H](O)C[C@H](O[C@H]3[C@@H](O)C[C@H](O[C@H]4CC[C@@]5(C)[C@H](CC[C@@H]6[C@@H]5CC[C@]5(C)[C@@H](C7=CC(=O)OC7)CC[C@]65O)C4)O[C@@H]3C)O[C@@H]2C)C[C@H](O)[C@@H]1O [Digitoxin],T/C (ratio of tumor growth delay of treated tumors to untreated controls),"RIF-1 tumors; Table 5, permeant 40 mg/kg, no TNF",0.99
O=c1c(-c2ccc(O)cc2)coc2cc(O)cc(O)c12 [Genistein],T/C (ratio of tumor growth delay of treated tumors to untreated controls),"RIF-1 tumors; Table 6, agent 80 mg/kg, saponin 10 mg/kg 1 hr prior where combined",1.1
Cc1ccc(C(=O)Nc2ccc(S(=O)(=O)O)c3cc(S(=O)(=O)O)cc(S(=O)(=O)O)c23)cc1NC(=O)c1cccc(NC(=O)Nc2cccc(C(=O)Nc3cc(C(=O)Nc4ccc(S(=O)(=O)O)c5cc(S(=O)(=O)O)cc(S(=O)(=O)O)c45)ccc3C)c2)c1 [Suramin],T/C (ratio of tumor growth delay of treated tumors to untreated controls),"RIF-1 tumors; Table 6, agent 20 mg/kg, saponin 10 mg/kg 1 hr prior where combined",1.0
N#C/C(=C\c1ccc(O)c(O)c1)C(N)=S [Tyrphostin 47],T/C (ratio of tumor growth delay of treated tumors to untreated controls),"RIF-1 tumors; Table 6, agent 60 mg/kg, EtOH as solvent, saponin 10 mg/kg 1 hr prior where combined",1.1
"CC[C@]1(O)C[C@@H]2CN(CCc3c([nH]c4ccccc34)[C@@](C(=O)OC)(c3cc4c(cc3OC)N(C)[C@H]3[C@@](O)(C(=O)OC)[C@H](OC(C)=O)[C@]5(CC)C=CCN6CC[C@]43[C@@H]65)C2)C1 [Vinblastine(VLB), Vinblastine]",Toxicity Deaths/# mice,C3H mice; [2],0/5
same,"Lethal toxic side effects, in words",C3H mice; vinblastine with saponin and collagen gel matrix (Table 7),decreasing the observed lethal toxic side effects
same,Treated (Table 7 column),RIF-1 tumors; [2],14.1 ± 1.57
same,"Efficacy of vinblastine, in words",RIF-1 tumors; in conjunction with saponin (Table 7),greatly enhances the efficacy of the vinblastine
same,"Efficacy of vinblastine, in words",RIF-1 tumors; with saponin and collagen gel matrix (Table 7),further enhances the efficacy of vinblastine
N.N.[Cl][Pt][Cl] [cisplatin],Uptake of cisplatin by ovarian cancer cells,ovarian cancer cells,enhanced uptake
Lysolecithin(type 1),T/C (ratio of tumor growth delay of treated tumors to untreated controls),"RIF-1 tumors; Table 5, permeant 10 mg/kg, no TNF",1.27
Neomycin sulfate [Neomycin sulfate (NS)],T/C (ratio of tumor growth delay of treated tumors to untreated controls),RIF-1 tumors; [1],0.7
